Literature values, collected in patent US6939987B2, “Method for producing Aspartame derivative, method for purifying the same, crystals thereof and uses of the same” (Ajinomoto Co., Inc., priority 1999, dated 2005).

Conditions: relative to sucrose; reported in International Patent Publication WO94/11391

In the case of `COC(=O)[C@H](Cc1ccccc1)NC(=O)[C@H](CC(=O)O)NCCC(C)(C)C` [N-[N-(3,3-dimethylbutyl)-L-α-aspartyl]-L-phenylalanine 1-methyl ester], the sweetening potency is given as 10000 times that of sucrose.
